Results taken from patent US20210298306A1, “PESTICIDALLY ACTIVE AZOLE-AMIDE COMPOUNDS” (SYNGENTA PARTICIPATIONS AG, priority 2018, published 2021).

Key:
Type in all cases: in vivo
[1] = test system: Diabrotica balteata; assay: Example B1: Diabrotica balteata (corn root worm), maize sprouts sprayed, L2 larvae; conditions: 96 h, application rate 200 ppm, 4 days after infestation, read-out: effect in at least one of the two categories (mortality or growth inhibition)
Procedure: Example B1: Diabrotica Balteata (Corn Root Worm)
Maize sprouts placed onto an agar layer in 24-well microtiter plates were treated with aqueous test solutions prepared from 10,000 ppm DMSO stock solutions by spraying. After drying, the plates were infested with L2 larvae (6 to 10 per well). The samples were assessed for mortality and growth inhibition in comparison to untreated samples 4 days after infestation.
(§1) The following compounds gave an effect of at least 80% in at least one of the two categories (mortality or growth inhibition) at an application rate of 200 ppm: […]

[2] = test system: Euschistus heros; assay: Example B2: Euschistus heros (neotropical brown stink bug), soybean leaves sprayed, N2 nymphs; conditions: 120 h, application rate 200 ppm, 5 days after infestation, read-out: effect in at least one of the two categories (mortality or growth inhibition)
Procedure: Example B2: Euschistus heros (Neotropical Brown Stink Bug)
Soybean leaves on agar in 24-well microtiter plates were sprayed with aqueous test solutions prepared from 10,000 ppm DMSO stock solutions. After drying the leaves were infested with N2 nymphs. The samples were assessed for mortality and growth inhibition in comparison to untreated samples 5 days after infestation.
as §1

[3] = test system: Plutella xylostella; assay: Example B4: Plutella xylostella (diamond back moth), artificial diet, 24-well, eggs; conditions: 192 h, application rate 200 ppm, 8 days after infestation, read-out: effect in at least one of the two categories (mortality or growth inhibition)
Procedure: Example B4: Plutella xylostella (Diamond Back Moth)
24-well microtiter plates with artificial diet were treated with aqueous test solutions prepared from 10,000 ppm DMSO stock solutions by pipetting. After drying, Plutella eggs were pipetted through a plastic stencil onto a gel blotting paper and the plate was closed with it. The samples were assessed for mortality and growth inhibition in comparison to untreated samples 8 days after infestation.
as §1

[4] = test system: Myzus persicae; assay: Example B6: Myzus persicae (green peach aphid), intrinsic activity, sucrose solution, 24-well; conditions: 120 h, test rate 12 ppm, 5 days after infestation
From the text: Example B6: Myzus persicae (Green Peach Aphid). Intrinsic Activity
Test compounds prepared from 10,000 ppm DMSO stock solutions were applied by pipette into 24-well microtiter plates and mixed with sucrose solution. The plates were closed with a stretched Parafilm. A plastic stencil with 24 holes was placed onto the plate and infested pea seedlings were placed directly on the Parafilm. The infested plate was closed with a gel blotting paper and another plastic stencil and then turned upside down. The samples were assessed for mortality 5 days after infestation.

[5] = test system: Spodoptera littoralis; assay: Example B7: Spodoptera littoralis (Egyptian cotton leaf worm), cotton leaf discs sprayed, L1 larvae; conditions: foliar, 72 h, application rate 200 ppm, 3 days after infestation, read-out: control in at least one of the categories (mortality, anti-feedant effect, or growth inhibition)
Procedure: Example B7: Spodoptera littoralis (Egyptian Cotton Leaf Worm)
Cotton leaf discs were placed onto agar in 24-well microtiter plates and sprayed with aqueous test solutions prepared from 10,000 ppm DMSO stock solutions. After drying the leaf discs were infested with five L1 larvae. The samples were assessed for mortality, anti-feeding effect, and growth inhibition in comparison to untreated samples 3 days after infestation. Control of Spodoptera littoralis by a test sample is given when at least one of the categories mortality, anti-feedant effect, and growth inhibition is higher than the untreated sample.

[6] = test system: Spodoptera littoralis; assay: Example B8: Spodoptera littoralis (Egyptian cotton leaf worm), uptake by lettuce roots from agar, eggs; conditions: 144 h, test rate 12.5 ppm, 6 days after infestation, lettuce root uptake, read-out: effect in at least one of the three categories (mortality, anti-feeding, or growth inhibition)
From the text: Example B8: Spodoptera littoralis (Egyptian Cotton Leaf Worm)
Test compounds were applied by pipette from 10,000 ppm DMSO stock solutions into 24-well plates and mixed with agar. Lettuce seeds were placed onto the agar and the multi well plate was closed by another plate which contained also agar. After 7 days the compound was absorbed by the roots and the lettuce grew into the lid plate. The lettuce leaves were then cut off into the lid plate. Spodoptera eggs were pipetted through a plastic stencil onto a humid gel blotting paper and the lid plate was closed with it. The samples were assessed for mortality, anti-feedant effect and growth inhibition in comparison to untreated samples 6 days after infestation.
The following compounds gave an effect of at least 80% in at least one of the three categories (mortality, anti-feeding, or growth inhibition) at a test rate of 12.5 ppm: […]

[7] = test system: Thrips tabaci; assay: Example B9: Thrips tabaci (onion thrips), feeding/contact activity, sunflower leaf discs; conditions: foliar, 144 h; application rate 200 ppm; 6 days after infestation; Thrips tabaci mixed ages
Procedure: Example B9: Thrips tabaci (Onion Thrips) Feeding/Contact Activity
Sunflower leaf discs were placed on agar in 24-well microtiter plates and sprayed with aqueous test solutions prepared from 10,000 ppm DMSO stock solutions. After drying the leaf discs were infested with a thrips population of mixed ages. The samples were assessed for mortality 6 days after infestation.

[8] = test system: Myzus persicae; assay: Example B5: Myzus persicae (green peach aphid), feeding/contact activity, sunflower leaf discs; conditions: foliar, 144 h, application rate 200 ppm, 6 days after infestation, Myzus persicae mixed ages
Procedure: Example B5: Myzus persicae (Green Peach Aphid):Feeding/Contact Activity
Sunflower leaf discs were placed onto agar in a 24-well microtiter plate and sprayed with aqueous test solutions prepared from 10,000 ppm DMSO stock solutions. After drying, the leaf discs were infested with an aphid population of mixed ages. The samples were assessed for mortality 6 days after infestation.

CC(c1ncnn1-c1ncccn1)N(CC1CC1)C(=O)c1cc(OC(F)(F)C(F)F)cc(C(F)(F)F)c1 (stereo not drawn) [P3, N-(cyclopropylmethyl)-N-[1-(2-pyrimidin-2-yl-1,2,4-triazol-3-yl)ethyl]-3-(1,1,2,2-tetrafluoroethoxy)-5-(trifluoromethyl)benzamide]
≥ 80%: percent effect (mortality or growth inhibition) at 200 ppm [1] | percent effect (mortality or growth inhibition) at 200 ppm [2] | percent effect (mortality or growth inhibition) at 200 ppm [3] | mortality at 12 ppm [4] | percent control (mortality, anti-feedant effect or growth inhibition) at 200 ppm [5] | percent effect (mortality, anti-feeding or growth inhibition) at 12.5 ppm [6] | mortality at 200 ppm [7]

CC(c1ncnn1-c1ncccn1)N(CC1CC1)C(=O)c1cc(C(F)F)cc(C(F)(F)F)c1 (stereo not drawn) [P1, N-(cyclopropylmethyl)-3-(difluoromethyl)-N-[1-(2-pyrimidin-2-yl-1,2,4-triazol-3-yl)ethyl]-5-(trifluoromethyl) benzamide]
≥ 80%: percent effect (mortality or growth inhibition) at 200 ppm [1] | percent effect (mortality or growth inhibition) at 200 ppm [2] | percent effect (mortality or growth inhibition) at 200 ppm [3] | mortality at 12 ppm [4] | percent control (mortality, anti-feedant effect or growth inhibition) at 200 ppm [5] | mortality at 200 ppm [7]

CC(NC(=O)c1cc(OC(F)F)cc(C(F)(F)F)c1)c1ncnn1-c1ncccc1F (stereo not drawn) [P12, 3-(difluoromethoxy)-N-[1-[2-(3-fluoro-2-pyridyl)-1,2,4-triazol-3-yl]ethyl]-5-(trifluoromethyl) benzamide]
≥ 80%: percent effect (mortality or growth inhibition) at 200 ppm [1] | percent effect (mortality or growth inhibition) at 200 ppm [2] | percent effect (mortality or growth inhibition) at 200 ppm [3] | percent control (mortality, anti-feedant effect or growth inhibition) at 200 ppm [5]

CC(NC(=O)c1cc(OCC(F)(F)F)cc(C(F)(F)F)c1)c1ncnn1-c1ncccn1 (stereo not drawn) [P7, N-[1-(2-pyrimidin-2-yl-1,2,4-triazol-3-yl)ethyl]-3-(2,2,2-trifluoroethoxy)-5-(trifluoromethyl) benzamide]
≥ 80%: percent effect (mortality or growth inhibition) at 200 ppm [1] | percent effect (mortality or growth inhibition) at 200 ppm [2] | percent effect (mortality or growth inhibition) at 200 ppm [3] | mortality at 200 ppm [8] | mortality at 12 ppm [4] | percent control (mortality, anti-feedant effect or growth inhibition) at 200 ppm [5]

CC(NC(=O)c1cc(OCC(F)(F)F)cc(C(F)(F)F)c1)c1ncnn1-c1ccc(F)cn1 (stereo not drawn) [P17, N-[1-[2-(5-fluoro-2-pyridyl)-1,2,4-triazol-3-yl]ethyl]-3-(2,2,2-trifluoroethoxy)-5-(trifluoromethyl) benzamide]
≥ 80%: percent effect (mortality or growth inhibition) at 200 ppm [1] | percent effect (mortality or growth inhibition) at 200 ppm [2] | percent effect (mortality or growth inhibition) at 200 ppm [3] | percent control (mortality, anti-feedant effect or growth inhibition) at 200 ppm [5]

CC(NC(=O)c1cc(OC(F)F)cc(C(F)(F)F)c1)c1ncnn1-c1ccccn1 (stereo not drawn) [P11, 3-(difluoromethoxy)-N-[1-[2-(2-pyridyl)-1,2,4-triazol-3-yl]ethyl]-5-(trifluoromethyl) benzamide]
≥ 80%: percent effect (mortality or growth inhibition) at 200 ppm [1] | percent effect (mortality or growth inhibition) at 200 ppm [3] | percent control (mortality, anti-feedant effect or growth inhibition) at 200 ppm [5] | percent effect (mortality, anti-feeding or growth inhibition) at 12.5 ppm [6]

CC(NC(=O)c1cc(SCC(F)(F)F)cc(C(F)(F)F)c1)c1ncnn1-c1ccc(F)cn1 (stereo not drawn) [P16, N-[1-[2-(5-fluoro-2-pyridyl)-1,2,4-triazol-3-yl]ethyl]-3-(2,2,2-trifluoroethylsulfanyl)-(trifluoromethyl) benzamide]
≥ 80%: percent effect (mortality or growth inhibition) at 200 ppm [1] | percent effect (mortality or growth inhibition) at 200 ppm [3] | percent control (mortality, anti-feedant effect or growth inhibition) at 200 ppm [5]

CC(NC(=O)c1cncc(OC(F)F)c1)c1ncnn1-c1ncccc1F (stereo not drawn) [P22, 5-(difluoromethoxy)-N-[1-[2-(3-fluoro-2-pyridyl)-1,2,4-triazol-3-yl]ethyl]pyridine-3-carboxamide]
≥ 80%: percent effect (mortality or growth inhibition) at 200 ppm [3]

CC(NC(=O)c1cc(OC(F)F)cc(C(F)(F)F)c1)c1ncnn1-c1ccc(F)cn1 (stereo not drawn) [P15, 3-(difluoromethoxy)-N-[1-[2-(5-fluoro-2-pyridyl)-1,2,4-triazol-3-yl]ethyl]-5-(trifluoromethyl) benzamide]
≥ 80%: percent effect (mortality or growth inhibition) at 200 ppm [1] | percent effect (mortality or growth inhibition) at 200 ppm [2] | percent effect (mortality or growth inhibition) at 200 ppm [3] | mortality at 12 ppm [4] | percent control (mortality, anti-feedant effect or growth inhibition) at 200 ppm [5] | percent effect (mortality, anti-feeding or growth inhibition) at 12.5 ppm [6]

CC(NC(=O)c1cc(SCC(F)(F)F)cc(C(F)(F)F)c1)c1ncnn1-c1ccccn1 (stereo not drawn) [P9, N-[1-[2-(2-pyridyl)-1,2,4-triazol-3-yl]ethyl]-3-(2,2,2-trifluoroethylsulfanyl)-5-(trifluoromethyl) benzamide]
≥ 80%: percent effect (mortality or growth inhibition) at 200 ppm [1] | percent effect (mortality or growth inhibition) at 200 ppm [3]

CC(NC(=O)c1cncc(OC(F)F)c1)c1ncnn1-c1ncccn1 (stereo not drawn) [P24, 5-(difluoromethoxy)-N-[1-(2-pyrimidin-2-yl-1,2,4-triazol-3-yl)ethyl]pyridine-3-carboxamide]
≥ 80%: percent effect (mortality or growth inhibition) at 200 ppm [1] | percent effect (mortality or growth inhibition) at 200 ppm [2] | mortality at 200 ppm [8]

CC(NC(=O)c1cc(SCC(F)(F)F)cc(C(F)(F)F)c1)c1ncnn1-c1ncccn1 (stereo not drawn) [P6, N-[1-(2-pyrimidin-2-yl-1,2,4-triazol-3-yl)ethyl]-3-(2,2,2-trifluoroethylsulfanyl)-5-(trifluoromethyl) benzamide]
≥ 80%: percent effect (mortality or growth inhibition) at 200 ppm [1] | percent effect (mortality or growth inhibition) at 200 ppm [3] | percent control (mortality, anti-feedant effect or growth inhibition) at 200 ppm [5]

CC(NC(=O)c1cc(SCC(F)(F)F)cc(C(F)(F)F)c1)c1ncnn1-c1ncccc1F (stereo not drawn) [P13, N-[1-[2-(3-fluoro-2-pyridyl)-1,2,4-triazol-3-yl]ethyl]-3-(2,2,2-trifluoroethylsulfanyl)-5-(trifluoromethyl) benzamide]
≥ 80%: percent effect (mortality or growth inhibition) at 200 ppm [1]

CC(NC(=O)c1cc(OCC(F)(F)F)cc(C(F)(F)F)c1)c1ncnn1-c1ccccn1 (stereo not drawn) [P10, N-[1-[2-(2-pyridyl)-1,2,4-triazol-3-yl]ethyl]-3-(2,2,2-trifluoroethoxy)-5-(trifluoromethyl) benzamide]
≥ 80%: percent effect (mortality or growth inhibition) at 200 ppm [1] | percent effect (mortality or growth inhibition) at 200 ppm [2] | percent effect (mortality or growth inhibition) at 200 ppm [3] | percent control (mortality, anti-feedant effect or growth inhibition) at 200 ppm [5]
